# Entries after “also recorded” stand apart in the source; their conditions may differ. Marks after values point to notes of the source that are not given here.
# What was measured:
# [1] = system: MKP-1, α-globin, β-globin, preproenkephalin mRNA; assay: Real-time PCR of brain mRNAs; type: in vivo, mouse; details: Striatum, percentage of untreated R6/2, normalized to β-actin
# Method: Real-time PCR: Reverse transcription of 1 Êg total RNA was conducted with a SuperScript™ First-Strand Synthesis System for RT-PCR (Invitrogen) using random hexamer primers per the manufacturer's instructions. Quantitative real-time PCR studies utilized a Bio-Rad iCycler to follow the amplification of cDNA products by using SYBR_ Green PCR Master Mix (Applied Biosystems) through 50 PCR cycles (95_C for 30 s, 57_C for 1 min, 72_C for 1.5 min). Specific amplification of the target sequences was determined by melt curve analysis and DNA sequencing. Primer pair sequences were as follows: Preproenkephalin (XM—131313) GTGTCCAGGCCCGAGTTC and […]; MKP-1 (NM_013642) […] and […]; _-globin (NM_008218) CCACCCTGCCGATTTCA and CCGCAGMGGCAGCTTAAC; _-globin (NM_008220) […] and CCCAGCACAATCACGATCA; _-actin (X03672) AGGTATCCTGACCCTGAAG and […]. Expression of the mRNAs of interest was calculated using the equation: V=(1+E reference)(C t reference)/(1+E target) (C t target) to correct for potential differences in RNA input and PCR primer efficiencies (Livak and Schmittgen, 2001). V=relative value of target gene normalized to reference (_-actin), E=primer efficiency, C t=threshold crossing cycle number. Differences between genotype and treatment groups were assessed using an unpaired, two-tailed Student's t-test.
# [2] = system: acetylated histone 3 and histone 4; assay: Immunocytochemistry of acetylated H3 and H4 in brain sections; type: in vivo, mouse; details: 1.2 g/kg/d i.p.; R6/2 mice at 90 days
# Method: Neuropathological Evaluation of Sodium Butyrate Treatment: Beginning at 21 days, R6/2 transgenic mice and wild-type littermate control mice were treated daily with the most optimal dose of sodium butyrate (1.2 g/kg), as determined by survival studies, or PBS intraperitoneal injections. Groups of 10 animals from each treatment paradigm were deeply anesthetized and transcardially perfused with 4% buffered paraformaldehyde at 90 days of age. Forty mice were used for neuropathological analysis, as previously described (Ferrante et al., 2002). Serially cut tissue sections were stained for Nissl substance and immunostained for huntingtin (monoclonal huntingtin antibody, 1:1,000 dilution, Chemicon International Inc.) and for acetylated histone 3 and histone 4 (dilution, 1:1,000, Upstate Biotechnology, Lake Placid, N.Y.), using a previously reported conjugated secondary antibody method in murine brain tissue samples (Ferrante et al., 2002). Specificity for the antisera used in this study was examined in each immunochemical experiment to assist with the interpretation of the results. Preabsorption with excess target proteins, omission of the primary antibodies, and omission of secondary antibodies were performed to determine the amount of background generated from the detection assay.
# [3] = system: 3-NP induced striatal lesions in R6/2 mice; assay: 3-Nitropropionic acid (3-NP) striatal toxicity in R6/2 mice; type: in vivo, mouse
# Method: 3-Nitropropionic Acid Administration: At six weeks, groups of 10 R6/2 mice were treated with daily 1.2 g/kg sodium butyrate or PBS via intraperitoneal injections for two weeks. At the start of week two, 3-nitropropionic acid (3-NP) (Sigma, St. Louis, Mo.) was dissolved in PBS (pH adjusted to 7.4), made fresh daily, and injected intraperitoneally 9 times at 12 hrs intervals (75 mg/kg) in R6/2 mice. The mice were euthanized 8-10 hrs after the last 3-NP injection, deeply anesthetized and transcardially perfused with buffered 4% paraformaldehyde and processed for histopathologic evaluation. Glycerol cryoprotected brains were frozen sectioned at 50 Êm, stained with cresyl violet, and quantitative analysis of lesion volumes was performed in serial sections as described below.
# Stereology/Quantitation: Serial-cut coronal tissue-sections beginning from the most rostral segment of the neostriatum to the level of the anterior commissure (Inter aural 5.34 mm/Bregma 1.54 mm to Inter aural 3.7 mm/Bregma −0.10 mm), were used for huntingtin aggregate analysis. Unbiased stereological counts of huntingtin-positive aggregates ([…]) were obtained from the neostriatum in 10 mice each from sodium butyrate-treated (1.2 g/kg) and PBS-treated R6/2 mice at 90 days using Neurolucida Stereo Investigator software (Microbrightfield, Colchester, Vt.). The total areas of the rostral neostriatum were defined in serial sections in which counting frames were randomly sampled. The optical dissector method was employed estimating the number of huntingtin-positive aggregates. Striatal neuron areas were analyzed by microscopic videocapture using a Windows-based image analysis system for area measurement (Optimas, Bioscan Incorporated, Edmonds, Wash.). The software automatically identifies and measures profiles. All computer identified cell profiles were manually verified as neurons and exported to Microsoft Excel. Cross-sectional areas were analyzed using Statview.
# [4] = system: huntingtin-positive aggregates; assay: Huntingtin aggregate stereology and ubiquitin inclusions in neostriatum; type: in vivo, mouse; details: 1.2 g/kg/d i.p. from 21 days; at 90 days; vs PBS-treated R6/2
# Method: Neuropathological Evaluation of Sodium Butyrate Treatment: Beginning at 21 days, R6/2 transgenic mice and wild-type littermate control mice were treated daily with the most optimal dose of sodium butyrate (1.2 g/kg), as determined by survival studies, or PBS intraperitoneal injections. Groups of 10 animals from each treatment paradigm were deeply anesthetized and transcardially perfused with 4% buffered paraformaldehyde at 90 days of age. Forty mice were used for neuropathological analysis, as previously described (Ferrante et al., 2002). […]
# Stereology/Quantitation: Serial-cut coronal tissue-sections beginning from the most rostral segment of the neostriatum to the level of the anterior commissure (Inter aural 5.34 mm/Bregma 1.54 mm to Inter aural 3.7 mm/Bregma −0.10 mm), were used for huntingtin aggregate analysis. […] Striatal neuron areas were analyzed by microscopic videocapture using a Windows-based image analysis system for area measurement (Optimas, Bioscan Incorporated, Edmonds, Wash.). […] Cross-sectional areas were analyzed using Statview.
# [5] = system: R6/2 transgenic mouse model of HD; assay: Rotarod motor performance in R6/2 mice; type: in vivo; details: at 90 days, vs PBS-treated R6/2 mice
# Method: Intraperitoneal Dosing: Based upon previous studies (Egorin et al., 1999), a dose response study was performed, treating groups of wild type mice (n=10) and littermate R6/2 mice (n=20) with 100, 200, 400, 600, 1,200, 5,000, and 10,000 mg/kg daily intraperitoneal injection (100 Êl) of sodium butyrate (Acros Organics/Fisher Scientific) dissolved in PBS and made fresh daily. Control groups were treated with PBS injection or untreated. Approximately 240 mice were used for behavioral and survival analyses.
# Clinical Assessment: Both motor performance and body weight were measured throughout the study. Training sessions were given on days 21 and 22 to acclimate the mice to the rotarod apparatus (Columbus Instruments, Columbus, Ohio). Motor performance (constant rotation at 16 rpm) was assessed weekly from 23-63 days of age and twice weekly from 63 days of age in the sodium butyrate-treated, PBS-treated R6/2 mice, and wild type littermate control mice. Three 60 sec trials were given during each session and averaged. Body weights were recorded twice weekly at the same time of day in all groups.
# Statistics: The data are expressed as the mean+standard error of the mean. Statistical comparisons of rotarod, weight data, and histology data were compared by ANOVA or repeated measures ANOVA. Survival data was analyzed by the Kaplan-Meier survival curves.
structure (smiles),measurement,setting,value
CCCC(=O)[O-].[Na+] [sodium butyrate],"PCR, NaBu Txd R6/2 vs R6/2","[1]; MKP-1 mRNA, p<0.05",181%^a
same,"PCR, NaBu Txd R6/2 vs R6/2",[1]; Preproenkephalin mRNA,101%
same,"PCR, NaBu Txd R6/2 vs R6/2","[1]; α-globin mRNA, p<0.01",206%^c
same,"PCR, NaBu Txd R6/2 vs R6/2","[1]; β-globin mRNA, p<0.02",215%^b
same,H3 and H4 acetylation immunostaining in brain sections,[2],increased acetylation of histone 4; also recorded: greatly enhanced
same,mice with bilateral striatal lesions,"[3]; 1.2 g/kg/d i.p. two weeks, 3-NP in second week, 3-NP/PBS: seven of ten",two of ten
same,neuroprotection from 3-NP striatal damage,"[3]; 1.2 g/kg/d i.p. two weeks, 3-NP in second week, vs 3-NP and PBS-treated R6/2",prevented 3-NP striatal-induced damage; also recorded: marked neuroprotection; also recorded: nearly complete protection
same,reduction in lesion volume,"[3]; 1.2 g/kg/d i.p., vs 3-NP/PBS-treated R6/2 mice",73.3%
same,huntingtin-positive striatal aggregates or ubiquitin-positive inclusions,[4],no significant differences; also recorded: no significant reduction
same,percentile increase in rotarod performance,[5]; 400 mg/kg,24.0%
same,percentile increase in rotarod performance,[5]; 600 mg/kg,27.5%
same,percentile increase in rotarod performance,"[5]; 1,200 mg/kg",34.9%

# Reference: patent US20060069157A1, “Method of ameliorating or abrogating the effects of a neurodegenerative disorder, such as Huntington's disease, by sodium butyrate chemotherapy” (U.S. DEPARTMENT OF VETERANS AFFAIRS, priority 2004, published 2006)
